Laboratory results as given in patent US8822513B2, “Compounds for treatment of cancer” (GTX, Inc., priority 2010, dated 2014).
Like-named read-outs stand apart in the source and are kept apart here.

Assays:
[1] = system: prostate cancer cell lines (LNCaP, PC-3, DU-145, PPC-1); assay: SRB cytotoxicity, prostate cancer cell lines (panel statements); conditions: Homo sapiens, read-out: IC50 against prostate cancer cells
Bovine brain tubulin = assay: In vitro tubulin polymerization assay (bovine brain tubulin); assay type: biochemical
Method: The spectrophotometer was maintained at 37° C. for tubulin polymerization.

[2] = system: tubulin (colchicine, vinblastine, paclitaxel binding sites); assay: MS competitive binding assay
Description: Each reaction was run in triplicate.

[3] = Rotarod test (in vivo neurotoxicity); design: species or system mouse; conditions: ICR mice; 1h 5 or 15 mg/kg, vinblastine 0.5 mg/kg, i.p. daily
Method: ICR mice received training three times a day for two days to enable them to stay on the rotating rod for >120 seconds at 12 rpm. Mice were then randomized by the length of time that they could stay on the rotating rod and divided into 7-8 mice per group. […] The rotarod test was performed twice a week. […] The rod speed was increased from […] to 40 rpm over a period of 5 min. Performance was measured as the length of time that a mouse could stay on the rotating rod.

[4] = Metabolic stability in human liver microsomes; conditions: for Half life in Human liver microsome: Table 20
A375 melanoma xenografts = assay: In vivo efficacy, A375 melanoma xenograft in nude mice (SMART compounds); design: species or system mouse; conditions: 15 mg/kg i.p.
[5] = ICR mice, 4 consecutive days i.p.
PC-3 cells [6] = assay: Apoptosis detection by ELISA (cytoplasmic DNA-histone complexes), PC-3; assay type: cell-based, human; conditions: PC-3 and A375 cells, 24 h
Description: The levels of DNA-histone complexes were used to represent cell apoptosis.
Quantification of the enrichment of mono- and oligonucleosomes in the cytoplasm was used to determine the ability of the compounds to induce apoptosis (cell death detection ELISA PLUS, Roche, Germany) following the manufacturer's instructions.

PC-3 xenografts = assay: In vivo efficacy, PC-3 prostate tumor xenograft in nude mice; conditions: 50 mg/kg i.p.
NCI/ADR-RES cells = assay: SRB cytotoxicity assay, NCI/ADR-RES (P-gp over-expressing); assay type: cell-based; conditions: Homo sapiens
[7] = system: three melanoma cell lines and four human prostate cancer cell lines; assay: SRB cytotoxicity, melanoma and prostate cancer cell lines (ranges and averages over the panel); assay type: cell-based; conditions: Homo sapiens; text on Tables 2, 3, 12, 21; read-out: IC50 (range over cell lines)
[8] = Aqueous solubility, Multiscreen Solubility Filter Plate, PBS pH 7.4; assay type: physicochemical; conditions: HCl salt, vs 1h
[9] = Pharmacokinetic study in Sprague-Dawley rats; conditions: rat
[10] = Metabolic stability in mouse liver microsomes; assay type: in vitro ADME; conditions: Table 20
[11] = Metabolic stability in rat liver microsomes; assay type: in vitro ADME; conditions: Table 20
[12] = Metabolic stability in dog liver microsomes; assay type: in vitro ADME; conditions: Table 20
[13] = Metabolic stability in monkey liver microsomes; assay type: in vitro ADME; conditions: Table 20
LNCaP cells = assay: SRB cytotoxicity assay, LNCaP; assay type: cell-based, human; conditions: Table 12; 96 h; read-out: IC50 ± SEM LNCaP
Description: (§1) Cells were stained with SRB solution.

PC-3 cells [14] = system: PC-3 cells
Description: as §1
Cells were stained with sulphorhodamine B (SRB) solution.

DU 145 cells = assay: SRB cytotoxicity assay, DU 145; assay type: cell-based, human; conditions: Table 12; 96 h; read-out: IC50 ± SEM Du 145
Description: as §1

PPC-1 cells = system: PPC-1 cells
Description: as §1

A375 melanoma cells = assay: SRB cytotoxicity assay, A375; assay type: cell-based, human; conditions: Table 12; 48 h; read-out: IC50 ± SEM A375
B16-F1 melanoma cells = assay: SRB cytotoxicity assay, B16-F1; assay type: cell-based, mouse
WM-164 melanoma cells = assay: SRB cytotoxicity assay, WM-164; assay type: cell-based, human; conditions: Table 12; 48 h; read-out: IC50 ± SEM WM164
PC-3/TxR cells [15] = system: PC-3/TxR cells
PC-3/TxR cells [16] = assay: SRB cytotoxicity assay, paclitaxel-resistant PC-3/TxR; conditions: Table 15; data in parentheses; IC50 values in PC-3 and PC-3/TxR compared
B16-F1 melanoma tumors = assay: In vivo efficacy, B16-F1 melanoma in C57/BL mice; design: species or system mouse; conditions: 60 mg/kg i.p. daily, 14 days
Method: Female C57/BL mice, age 4-6 weeks, were purchased from Harlan Laboratories (Harlan Laboratories Inc., Indianapolis, Ind.). The animal housing met the Association for Assessment and Accreditation and Laboratory Animal Care specifications. All of the procedures were conducted in accordance with guidelines of our Institutional Animal Care and Use Committee.
Tumor volume was expressed in cubic millimeters.

[17] = Pharmacokinetic study in ICR mice; conditions: 15 mg/kg i.v.
[18] = Table 12, 48 h, read-out: IC50 ± SEM B16-F1

## COc1cc(C(=O)c2cccc(-c3ccccc3)n2)cc(OC)c1OC [1c, (6-Phenylpyridin-2-yl)(3,4,5-trimethoxyphenyl)methanone]
[1]
  IC50: 12 to 35 nM

## COc1cc(C(=O)c2csc(-c3ccccc3)n2)cc(OC)c1OC [1h, (2-Phenyl-thiazol-4-yl)-(3,4,5-trimethoxy-phenyl)-methanone]
Bovine brain tubulin; 10 μM (Example 22)
  inhibition of tubulin polymerization: 90%
Bovine brain tubulin; 10 μM, after 20 min, vs vehicle
  inhibition of tubulin polymerization: 47%
[2]
  competition with colchicine-tubulin binding: specifically competed with colchicine binding to tubulin
[3]
  time on the rotating rod vs vehicle group: no significant difference
[4]; Table 16B, Phase I + II (UDP-glucuronic acid present)
  Half-life in HLM (Phase I + II): 17 min
[4]
  Half life in Human liver microsome: 17 min

## COc1cc(C(=O)c2csc(-c3ccc(F)cc3)n2)cc(OC)c1OC [2k]
Bovine brain tubulin; 10 μM (Example 22)
  inhibition of tubulin polymerization: 90%
A375 melanoma xenografts
  % T/C: 29%
[5]
  dose not causing greater than 10% loss of body weight: ≤ 15 mg/kg

## COc1cc(C(=O)c2csc(-c3ccc(O)cc3)n2)cc(OC)c1OC [2l, (2-(4-Hydroxyphenyl)thiazol-4-yl)(3,4,5-trimethoxyphenyl)methanone]
Bovine brain tubulin; 10 μM (Example 22)
  inhibition of tubulin polymerization: 55%
PC-3 cells [6]
  concentration inducing apoptosis: greater than or equal to 200 nM
PC-3 xenografts
  % T/C: 34%

## COc1cc(C(=O)c2csc(-c3ccc(CN)cc3)n2)cc(OC)c1OC.Cl [2r, (2-(4-(Aminomethyl)phenyl)thiazol-4-yl)(3,4,5-trimethoxyphenyl)methanone hydrochloride]
NCI/ADR-RES cells; Table 5A, P-gp over-expressed, read-out: IC50 NCI/ADR-RES
  IC50: 11 ± 2 nM
[7]
  IC50: 13 to 80 nM
[8]
  increase of solubility: over 35 fold

## COc1cc(C(=O)c2csc(Nc3ccc(F)cc3)n2)cc(OC)c1OC.Cl [5Hc, (2-(p-Fluorophenylamino)thiazol-4-yl)(3,4,5-trimethoxyphenyl)methanone hydrochloride salt]
[9]
  increased exposure (AUC) by the oral route compared to 1h: more than 4.3 fold

## c1cc2ccc(-c3ccc4[nH]ccc4c3)cc2c(-c2ccc3[nH]ccc3c2)n1 [6b, 1,7-Bis-(1H-indol-5-yl)-isoquinoline]
[10]
  Half life in Mouse liver microsome: 10 min
[11]
  Half life in Rat liver microsome: 9 min
[12]
  Half life in Dog liver microsome: 30 min
[13]
  Half life in Monkey liver microsome: 13 min
[4]
  Half life in Human liver microsome: 40 min

## Fc1ccc(-c2nccc3ccc(-c4ccc5[nH]ccc5c4)cc23)cc1 [6c, 1-(4-Fluoro-phenyl)-7-(1H-indol-5-yl)-isoquinoline]
[10]
  Half life in Mouse liver microsome: 13 min
[11]
  Half life in Rat liver microsome: 14 min
[12]
  Half life in Dog liver microsome: 29 min
[13]
  Half life in Monkey liver microsome: 9 min
[4]
  Half life in Human liver microsome: 47 min

## COc1cc(C(=O)c2c[nH]c(-c3ccc(Cl)cc3)n2)cc(OC)c1OC [12fa, (2-(4-chlorophenyl)-1H-imidazol-4-yl)(3,4,5-trimethoxyphenyl)methanone]
NCI/ADR-RES cells; Table 12, read-out: IC50 ± SEM NCl/ADR-RES
  IC50: 19 nM
[4]; Table 16B, Phase I
  Half-life in HLM (Phase I): 44 min

## O=C(c1ccc(F)cc1)c1c[nH]c(-c2ccc(O)cc2)n1 [12kb]
LNCaP cells
  IC50: > 10 µM
PC-3 cells [14]; read-out: IC50 ± SEM PC-3, Table 12, 96 h
  IC50: > 10000 nM
DU 145 cells
  IC50: > 10 µM
PPC-1 cells; read-out: IC50 ± SEM PPC-1, Table 12, 96 h
  IC50: > 10000 nM
A375 melanoma cells
  IC50: 10 µM
B16-F1 melanoma cells; [18]
  IC50: > 10 µM
WM-164 melanoma cells
  IC50: > 10 µM

## O=C(c1cc(O)c(O)c(O)c1)c1c[nH]c(-c2ccc(O)c(O)c2)n1 [13ha]
A375 melanoma cells
  IC50: > 10 µM
B16-F1 melanoma cells; [18]
  IC50: > 10 µM
WM-164 melanoma cells
  IC50: > 10 µM

## COc1cc(C(=O)c2cn(S(=O)(=O)c3ccccc3)c(-c3cn(S(=O)(=O)c4ccccc4)c4ccccc34)n2)cc(OC)c1OC [17yaa, (1-(phenylsulfonyl)-2-(1-(phenylsulfonyl)-1H-indol-3-yl)-1H-imidazol-4-yl)(3,4,5-trimethoxyphenyl)methanone]
PC-3 cells [14]
  IC50: 5.2 ± 0.2 nM
PPC-1 cells
  IC50: 21 ± 0.1 nM
B16-F1 melanoma cells; Table 6A, read-out: IC50 B16-F1
  IC50: 0.538 µM
PC-3/TxR cells [15]
  IC50: 2.1 ± 0.1 nM
PC-3/TxR cells [16]
  Resistance factor PC-3/TxR vs PC-3: 0.4

## CN(C)/N=N/c1[nH]cnc1C(N)=O [DTIC]
B16-F1 melanoma tumors
  tumor volume reduction: 51%

## COc1cc(C(=O)c2csc(-c3ccc(F)cc3)n2)cc(OC)c1OC [SMART-F]
A375 melanoma xenografts; Melanoma (A375) xenograft
  T-C: 11 days
[17]; mice
  AUC: 2.1 µg·h/mL

## CC[C@]1(O)C[C@@H]2CN(CCc3c([nH]c4ccccc34)[C@@](C(=O)OC)(c3cc4c(cc3OC)N(C)[C@H]3[C@@](O)(C(=O)OC)[C@H](OC(C)=O)[C@]5(CC)C=CCN6CC[C@]43[C@@H]65)C2)C1 [Vinblastine, vinblastine, reference compound]
[2]
  competition with colchicine-tubulin binding: did not inhibit the colchicine-tubulin binding
[3]
  time on the rotating rod vs vehicle group: gradually reduced the time

## O=C(c1ccc2[nH]ccc2c1)c1csc(-c2cc3ccccc3[nH]2)n1 [compound 21, (2-(1H-indol-2-yl)thiazol-4-yl)(1H-indol-5-yl)methanone]
[7]
  IC50: 76 to 116 nM
[17]; ICR mice
  times higher Vss than 1h and 2k: 2-3 times
